Experimental findings from patent publication US10457943B2, “Antisense oligonucleotides for treatment of cancer stem cells” (Andes Biotechnologies Global, Inc., priority 2013, dated 2019) are described below.

The test system of series [1] is CerCa 3 primary cervical tumor cells (HPV 45). Put plainly: Sphere formation assay, primary cervical tumor cells CerCa 3. It is filed as cell-based, human. Conditions: incubated with 45 μM cisplatin. How it is done: (§1) The ability of cervical cells from the SiHa cervical cancer cell line (transformed with Human Papillomavirus 16 or HPV 16) and from primary cultures of human uterine cervical cancer cells derived from patients to form spheroid bodies following treatment with antisense oligonucleotides directed to antisense non-coding chimeric mitochondrial RNA (ASncmtRNA) was determined. The assay utilized measured the numbers of spheroid bodies, also referred to herein as spheres, which are formed by cancer stem cells.
(§2) The experimental procedure and assay utilized herein measured the effect of antisense oligonucleotides that were targeted to ASncmtRNA on the number of spheres formed by cervical cancer cells (FIG. 6). Sphere formation was measured in the SiHa cervical cancer cell line and primary cultures of human cervical cancer cells derived from patients (CerCa). […]
(§3) About 1×10^5 cells resuspended in MEGM™ medium supplemented with 20 ng/ml of hEGF, hydrocortisone, insulin, GA-1000 (Lonza), 0.5×B-27 without vitamin A (Invitrogen), 20 ng/ml of FGFb (Invitrogen) without CFS were seeded on ultra-low adherence plates (Corning). Ten days later, the spheres were counted under phase microscopy, collected and filtered using a nylon mesh of 70 μm to discard single cells. […]
(§4) The different primary cultures were analyzed with the PGMY09/11 Linear Array (Roche). […]

Series [2] concerns CerCa 1 primary cervical tumor cells (HPV 16). Put plainly: Sphere formation assay, primary cervical tumor cells CerCa 1. Format: cell-based, human. Conditions: incubated with 45 μM cisplatin. How it is done:
as §1, §2, §3, §4

Series [3] concerns SiHa cervical cancer cell line (HPV 16). The series is described as follows: Sphere formation assay, SiHa cervical cancer cell line. Format: cell-based, human. The settings on record: incubated with 45 μM cisplatin. How it is done:
as §1
The experimental procedure and assay utilized herein measured the effect of antisense oligonucleotides that were targeted to ASncmtRNA on the number of spheres formed by cervical cancer cells (FIG. 6). Sphere formation was measured in the SiHa cervical cancer cell line and primary cultures of human cervical cancer cells derived from patients (CerCa). CerCa 1, CerCa 2 and CerCa 3 (transformed with Human Papillomavirus 45) were obtained from patient biopsies. […]
as §3

The test system of series [4] is CerCa 2 primary cervical tumor cells (HPV 16). The series is described as follows: Sphere formation assay, primary cervical tumor cells CerCa 2. It is filed as cell-based, human. The settings on record: incubated with 45 μM cisplatin. How it is done: as §1, §2, §3, §4
Series [5] has as its system RENCA cells. The series is described as follows: Relapse and survival after surgical removal of RENCA kidney tumors, intraperitoneal/intravenous treatment (Example 5). Format: in vivo, mice. The settings on record: day 60; 25 μg ip and iv injections in liposomes. How it is done:
100,000 RENCA cells (ATCC® CRL-2947™ Mus musculus kidney renal adenocarcina) were injected subcutaneously on day 0 in 8 mice. […] Tumors of all animals were removed by surgery and divided in 2 groups. […] Post-suture, a bolus of 250 μl was intraperiotoneally injected in the place of where tumor had grown: the control group was injected with ASO 154 and the treated group with ASO 1560S. On days 13, 15, 17 and 19, intraperitoneal injections of 25 μg ASO 154 (FIG. 12, circles) or 25 μg ASO 1560S (FIG. 12, squares) formulated in liposomes were injected in a volume of 250 μl. On days 14, 16 and 18, the mice were injected intravenously with the same protocol. On day 22, all control animals had tumors larger than 1,200 mm3 and were sacrificed. On day 60, all animals treated with ASO 1560S had no tumors and were still alive (FIG. 12).

The subject of series [6] is RENCA cells. Put plainly: Relapse and survival after surgical removal of RENCA kidney tumors, single post-surgery treatment (Example 4). The settings on record: in liposomes. Format: in vivo, mice. How it is done:
100,000 RENCA cells (ATCC® CRL-2947™ Mus musculus kidney renal adenocarcina) were injected subcutaneously at day 0. […] The animals were sutured and […] injected at the site of the removed tumor with 100 μg of ASO 154 (FIG. 11, squares) or ASO 1560S (FIG. 11, triangles), both formulated in liposomes, in 250 μl. No further treatment was given.

For series [7], the system named is B16F10 melanoma cells. Put plainly: Relapse and metastasis after surgical removal of B16F10 melanoma tumors (Example 3). Format: in vivo, C57BL/6 mice. How it is done: One common clinical protocol for melanoma includes surgical resection follow by systemic administration of drugs. Similar protocols are used in the practice of other tumors. In the melanoma model presented in this representative example, B16F10 melanoma cells (100,000 cells in 200 μl of saline) were injected subcutaneously on the back of C57BL/6 mice. About 11 to 12 days post-cell injection, tumors between 700 to 1.000 mm3 developed (a 1,000 mm3 tumor in mice is considered equivalent to a 3,000 cc3 tumor in humans). […] Tumors were surgically resected under anesthesia and the wound washed once with 250 μl containing 100 μg of ASO 1560S or ASO 154. After surgical suture, a bolus of 200 μl saline containing 100 μg of ASO 154 or ASO 1560S was applied into the cavity left by the tumor. Three days post-surgery, mice received on alternative days, 3 intravenous (FIG. 9; 1st, 3rd, 5th arrows on timeline) or 3 intraperitoneal (FIG. 9; 2nd, 4th, 6th arrows on timeline) injections of 250 μl saline containing 100 μg of either ASO 1560S or ASO 154. Tumor growth was measured twice a week with a caliper.
Relapse of tumor growth in mice treated with ASO 154 was observed about 3 days post-surgery and tumor volume of about 1,500 mm3 was reached on about the 25th day post-cell injection (FIG. 9). These mice were euthanized under anesthesia, and the tumor and other organs were fixed and saved for further studies. […] Livers and lungs were analyzed for the presence of metastatic nodules.

Series [8] concerns B16F10 melanoma cells. The series is described as follows: Relapse and survival after surgical removal of B16F10 melanoma tumors, intraperitoneal treatment (Example 6). The settings on record: 25 and 50 μg intraperitoneal injections post-surgery. It is filed as in vivo, mice.
In series [9] the test system is MB49 cells (mouse bladder cancer cells). Put plainly: Tumors and survival after surgical removal of MB49 bladder carcinoma tumors (Example 7). Format: in vivo, mice. How it is done:
Twelve mice were injected subcutaneously with a 100,000 MB49 cells (mouse bladder cancer cells). After 15 days mice had tumors of an average diameter of 800 mm3. Tumors were surgically removed (day 0) and a bolus of 200 μl containing 100 μg of ASO 154 (control) or ASO 1560S (active drug) was injected at the site of the surgery. Three days post-surgery mice were divided in 2 groups and treated intraperitoneally or intravenously with 100 μl injections containing ASO 154 (control group) or ASO 1560S (treated group) as indicated in FIG. 14. Only one mouse treated intraperitoneally with ASO 1560S developed a tumor.

The mark [10] stands for this setting: FIG. 14, intraperitoneal or intravenous administration.
Where [11] appears, read: treated intravenously after 100 μg bolus at surgery site.

Entries after “also recorded” stand apart in the source; their conditions may differ.

Regarding `N.N.[Cl][Pt][Cl]` [cisplatin], the Sphere formation entry in series [1] is reported as “no effect; also recorded: resistant to cisplatin treatment”; in series [2], “abolished sphere formation”; in series [3] it was “abolished sphere formation”; in series [4], “abolished sphere formation”.
Turning to “ASO 1560S: antisense oligonucleotide targeted to the mouse ASncmtRNAs (SEQ ID NO: 198) (antisense CACCCTCTAACCTAGAGAAG; all phosphorothioate, sugars by position and methylation of C not given here)”, the Survival entry is reported as “still alive” in [5]; “still alive; also recorded: complete survival” in [6] (day 61); “complete survival” in series [8]; “complete survival” in [9] (setting [10]); “full survival” in series [9] (setting [11]). The “Tumors / relapse after surgery” value in [5] is given as “no tumors; also recorded: absence of relapse”. Moreover, the “Tumors / tumor relapse after surgery” value in series [6] (up to day 61, 100 μg wash and 100 μg injection) is “no tumors; also recorded: absence of tumor relapse”. Besides, the “Relapse of tumor growth after surgery” value in series [7] (100 μg wound wash, 100 μg bolus, then 3 iv and 3 ip injections of 100 μg) is reported as “No relapse; also recorded: prevented or suppressed cancer relapse; also recorded: absence of tumor relapse”. In series [7] (130 days post-cell injection), the Detectable tumors result is “without the presence of detectable tumors”. In addition, in [7] (organs collected at euthanasia), the “Metastatic nodules in lungs and liver” value was “lacked the presence of metastatic nodules; also recorded: absence of metastatic nodules”. Besides, in [8], the “Tumor relapse after surgery” value is given as “absence of the intradermal melanoma tumor relapse”. The Tumors result in series [9] (setting [10]) was “absence of tumors”; in [9] (setting [11]), “remained without tumors”. The “Number of mice that developed a tumor” value in series [9] (treated intraperitoneally after 100 μg bolus at surgery site) is given as “one”.
